In brackets after ≈: the same amount, converted by molar mass.
Columns and labels:
[1] = tested on: Wolbachia within Brugia malayi Mf; test: Anti-Wolbachia time-kill analysis (timed wash-out) in B. malayi Mf; format: cell-based; settings: for Exposure time to achieve a maximal Wolbachia reduction: 10x EC50, maximal reduction 70–90% normalised to vehicle control
Source text: To compare the dynamics of the in vitro phenotype of our hits with existing anti-Wolbachia therapies, we employed a timed wash-out strategy (Fig. 5) at 10x EC50 to establish the anti-Wolbachia time-kill kinetics of the selected chemotypes (1A–5A), using five replicates per compound. […].
Fig. 5 Anti-Wolbachia time-kill analysis. Representatives from the top five clusters (1A–5A), as well as established anti-Wolbachia antibacterials (doxycycline (white), minocycline (grey), rifampicin (black)) were assessed after exposure for 1 day and 2 days before washing and further incubation until the standard 6-day read out. wsp:gst ratio was normalised to the DMSO vehicle control resulting in a read out of mean percentage reduction from control. Doxycycline day 6 treatment represents the result for exposure to doxycycline at 5 µM for a full 6 days (no wash). The box extends from the 25th to the 75th percentile with the median presented by the central line. The whiskers are set at the minimum and maximum therefore indicating the range from five replicates. The cluster number is indicated by colour: cluster 1 (dark blue), 2 (magenta), 3 (teal), 4 (dark gold), and 5 (light blue)
(§1) The Mf were obtained by peritoneal lavage, using a catheter, of gerbils (Meriones unguiculatus) harbouring a patent infection of B. malayi. Mf were purified using a PD-10 desalting column (Fisher), centrifuged (311 RCF for 5 min at room temperature) before the addition of 8000 Mf/well of a 96-well plate (100 µl per well) in complete media consisting of RPMI supplemented with 10% FBS, 1% penicillin streptomycin and 1% amphotericin B. Compounds were diluted in complete media and 100 µl was added per well, providing a final concentration of 5 µM, with five replicates per compound. Each plate contained doxycycline (5 µM) and DMSO controls. After incubation at 37 °C for 6 days in 5% CO2, visual assessment of Mf motility was performed and scored from 0 to 4 per well (where 0 = no movement and 4 = highly motile). DNA extraction per sample was performed using the QIAmp DNA Mini Kit before quantitative PCR was performed to obtain the ratio of Wolbachia Surface Protein gene copy number (wsp) to Glutathione S-Transferase gene copy number (gst)[36]. The DNA was amplified using the primers as indicated in Supplementary Table 6.
(§2) The wsp:gst ratio data allowed for normalisation of the Wolbachia level to the Mf biomass for each well. The change in wsp:gst for each compound compared to the DMSO control was calculated before normalisation to the onboard doxycycline control to allow for inter-assay comparison.

[2] = tested on: Wolbachia within Brugia malayi Mf; test: B. malayi microfilarial (Mf) in vitro anti-Wolbachia assay (wsp:gst qPCR); format: cell-based; settings: for EC50: Brugia malayi, 144 h, B. malayi Mf, 6 days, read-out: Mf EC50
Method: as §1, with “Compounds were diluted in complete media and 100 µl was added per well, providing a final concentration of 5 µM, with five replicates per compound.” left out
as §2

[3] = tested on: Wolbachia in C6/36 (wAlbB) cells; test: Confirmatory re-assessment in the insect cell screen (cell assay EC50); format: cell-based, Wolbachia pipientis wAlbB (in Aedes albopictus C6/36 cells); settings: Wolbachia, C6/36; insect cell screen, re-sourced or re-synthesised samples
Source text: To further validate the hit molecules from these 9 clusters, samples were sourced either from the AstraZeneca compound inventory or through re-synthesis. All 18 samples were characterised by nuclear magnetic resonance (NMR) and mass spectroscopy to confirm their chemical structures and by HPLC/LCMS to establish their purity (Supplementary Table 5 and Supplementary Data 1). These samples were also subject to confirmatory re-assessment in both the insect cell screen and Mf assays for anti-Wolbachia potency alongside confirmation of DMPK properties (LogD7.4, aqueous solubility in pH 7.4 PBS, human microsomal turnover, rat hepatocyte turnover and human plasma protein binding) (Fig. 4, Supplementary Figure 1 and Supplementary Table 4).
(§3) On day 0, a single cryovial was recovered and the cells washed before being transferred to a T225 cm^2 flask. After a 7-day recovery Wolbachia infection level (quality control (QC)) was checked by SYTO®11 DNA staining of both the host cell nuclei and intracellular Wolbachia. The end-point read out from the Operetta® high content imaging system (Perkin Elmer) was the percentage of cells infected with Wolbachia. This was obtained from cytoplasm texture analysis by the associated Harmony® software. Cells with a >50% of the population infected with Wolbachia were classed as having a good Wolbachia level and therefore used for screening through addition of 2000 cells per well into assay ready 384-well plates containing the test compounds. […] Each plate included on-board controls; vehicle/DMSO (total/maximum Wolbachia signal) or doxycycline 5 µM (null/minimum Wolbachia signal), resulting in single shot screening of 352 compounds per plate for the primary screen. […] QC plates were also created including full columns of the following controls; DMSO (total/max), 5 μM doxycycline (null/min), as well as 50 nM doxycycline (reference/medium Wolbachia signal). Daily batches contained ~150 compound plates in addition to the QC plates. Each compound plate was foil sealed before incubation for 7 days at 26 °C, 95% humidity and atmospheric air.

[4] = Human plasma protein binding; format: in vitro ADME; settings: plasma
Source text: (§4) The DMPK data used for triaging compounds, including LogD7.4, aqueous solubility, plasma protein binding, microsome and hepatocyte clearance measurements, were generated using the standard AstraZeneca UK high-throughput platform[37],[38].

[5] = Aqueous solubility in pH 7.4 PBS; format: physicochemical; settings: for solubility: PBS pH 7.4, aqueous buffer, pH 7.4 PBS, read-out: Aqueous solubility in pH7.4 PBS
Source text: as §4

[6] = tested on: THP-1 cells; test: Mammalian cell viability counter-screen (CellTiter-Blue); format: cell-based, human; settings: Homo sapiens, 48 h, read-out: HTS IC50 mammalian toxicity
Method: The human monocytic THP-1 cell line (ATCC® TIB-202) used for mammalian cytotoxicity evaluation was routinely cultured in roller bottles. Growth media consisted of RPMI 1640 supplemented with 10% FBS and 2 mM L-glutamine. Cells were maintained at 37 °C with 95% humidity in 5% CO2 in a shaking incubator.
All compounds selected for secondary IC50 screen were tested in parallel for mammalian cell viability using the CellTiter-Blue® Cell Viability Assay. THP1 cells were removed from culture and plated at 1 × 10^4 cells/well (40 µl) into 384-well assay ready plates and incubated at 37 °C, 5% CO2 for 48 h at 95% humidity. After the addition of CellTiter-Blue Viability reagent (8 µl of a 1:6 dilution) the assay plates were incubated for a further 2 h before fluorescence detected using a PerkinElmer EnVision™ plate reader.

[7] = Human microsome clearance; format: in vitro ADME; settings: for microsomal CLint: human, human microsomes
Source text: as §4

[8] = LogD7.4; format: physicochemical; settings: pH 7.4
Source text: as §4

[9] = Rat hepatocyte clearance; format: in vitro ADME
Source text: as §4

[10] = tested on: Wolbachia in C6/36 (wAlbB) cells; test: Secondary concentration response HTS (IC50) anti-Wolbachia screen in C6/36 (wAlbB) insect cells; format: cell-based, Wolbachia pipientis wAlbB (in Aedes albopictus C6/36 cells); settings: Wolbachia, 168 h, 7-day incubation, 10-point concentration range
Method: Initially C6/36 (wAlbB) cells (insect cells stably infected with the Wolbachia target) from a single cryopreserved batch were recovered over 7 days prior to plating into 384-well assay ready plates (containing the test compounds), using a semi-automated process allowing for daily batches of ~150 plates, set up 4 days per week for 8 weeks. After a 7-day incubation period with the test compounds the plates were moved into the second fully automated stage (using the Agilent Technologies BioCel system) involving formaldehyde fixation, DNA staining of the insect cell nuclei (Hoechst) for toxicity analysis and antibody staining specific to the intracellular Wolbachia (wBmPAL primary antibody and far-red secondary antibody). In the final stage the fixed and stained plates from stage 2 were processed through automated data acquisition (High Res Biosolutions system, incorporating EnVision™ and acumen® plate readers). This industry standardised assay was then used to screen AstraZeneca’s full library of 1.3 million compounds within 10 weeks. In total this HTS included 30 × 3 week assays covering 3835 × 384-well plates. This primary HTS generated 20,255 hits defined as >80% reduction in Wolbachia with <60% toxicity to the host insect cell (eliminating false positives). This represents an overall hit rate of 1.56%. These compounds are depicted in chemical space in Fig. 2 (black points)[21].
The mosquito (Aedes albopictus) derived cell line C6/36 (ATCC® CRL 1660), stably infected with Wolbachia pipientis wAlbB (C6/36(wAlbB)), was maintained in Leibovitz L15 medium containing 2 mM L-glutamine, 1% nonessential amino acids, 2% tryptose phosphate broth and 20% heat-inactivated foetal bovine serum (FBS) at 26 °C[18]. This screen exclusively used cells from the large-scale cryopreserved batch produced as part of this campaign by culturing the cells at scale before cryopreservation (90% FBS and 10% DMSO). This produced a cell bank of 190 × 1 ml cryovials containing 3 × 10^7 cells per vial.
as §3
After 7 days of drug incubation, the plates were loaded into the fully automated BioCel system which performed the following additions; fixation and DNA staining (1.8% formaldehyde + 0.6 µg/ml Hoechst 33342, 20 min), permeabilisation (80 μl of PBS + 0.25% Triton-X 100, 30 min), blocking (PBS + 6% BSA, 40 min), overnight incubation in the Wolbachia-specific anti-wBmPAL primary antibody[34] […]

EC50 [2] [nM]	fraction unbound [4]	solubility [5] [µM]	microsomal CLint [7] [µL/min/mg]	logD [8]	Rat hepatocytes CLint [9] [µl/min/1x106 cells]	Solubility (in words) [5]	Human microsomal stability (in words) [7]	SMILES	Exposure time to achieve a maximal Wolbachia reduction [1] [days]	Wolbachia reduction after a single day of exposure ([1]; 10x EC50, 1 day exposure, wash, 6-day read out, normalised to vehicle control) [%]	EC50 [3] [nM]	IC50 [6] [µM]	IC50 [10] [nM]	Mf in vitro potency (in words) [2]
~296	0.23	217 (≈ 113 µg/mL)	> 300	2.7	24.8			Cc1nccc(N2CCC(C(=O)N3CCCN(S(=O)(=O)c4ccc(Br)cc4)CC3)CC2)n1 [1B, (4-((4-bromophenyl)sulfonyl)-1,4-diazepan-1-yl)(1-(2-methylpyrimidin-4-yl)piperidin-4-yl)methanone]			268	> 30.6	111	
1760	0.05	397 (≈ 132 µg/mL)	83.4	3.7	> 300			CNC(=O)c1csc(C2CCCN2Cc2ccc(C)c(F)c2)n1 (centres unmarked) [4B, 2-(1-(3-fluoro-4-methylbenzyl)pyrrolidin-2-yl)-N-methylthiazole-4-carboxamide]			66	> 30.6	228	
447	0.088	26 (≈ 9.01 µg/mL)	11.3	2.9	55.1	acceptable	very good	O=C1NCCCc2nc(N3CCN(c4ccccc4F)CC3)sc21 [6A, 2-(4-(2-fluorophenyl)piperazin-1-yl)-5,6,7,8-tetrahydro-4H-thiazolo[5,4-c]azepin-4-one]			2560	> 30.6	684	lower potency than representatives 4A or 5A

More lines, now with the values behind:

SMILES	EC50 [2] [nM]	fraction unbound [4]	solubility [5] [µM]	microsomal CLint [7] [µL/min/mg]	logD [8]	Rat hepatocytes CLint [9] [µl/min/1x106 cells]	Solubility (in words) [5]	Human microsomal stability (in words) [7]	Exposure time to achieve a maximal Wolbachia reduction [1] [days]	Wolbachia reduction after a single day of exposure ([1]; 10x EC50, 1 day exposure, wash, 6-day read out, normalised to vehicle control) [%]	EC50 [3] [nM]	IC50 [6] [µM]	IC50 [10] [nM]	Mf in vitro potency (in words) [2]
CN(C)c1ccc(O)c2c1C[C@H]1C[C@H]3[C@H](N(C)C)C(O)=C(C(N)=O)C(=O)[C@@]3(O)C(O)=C1C2=O [minocycline, reference compound]									> 2					
C[C@H]1c2cccc(O)c2C(=O)C2=C(O)[C@]3(O)C(=O)C(C(N)=O)=C(O)[C@@H](N(C)C)[C@@H]3[C@@H](O)[C@@H]21 [doxycycline, reference compound]	250								> 2	9				
CO[C@H]1/C=C/O[C@@]2(C)Oc3c(C)c(O)c4c(O)c(c(/C=N/N5CCN(C)CC5)c(O)c4c3C2=O)NC(=O)/C(C)=C\C=C\[C@H](C)[C@H](O)[C@@H](C)[C@@H](O)[C@@H](C)[C@H](OC(C)=O)[C@@H]1C [rifampicin, reference compound]									> 2					

— article PMC6315057, “Industrial scale high-throughput screening delivers multiple fast acting macrofilaricides” (Nature Communications, 2019)
